Results on seven substances are retold here after patent US20230263822A1, “MODULATION OF FACTOR 11 EXPRESSION” (Ionis Pharmaceuticals, Inc., priority 2008, published 2023).

e = 2'-O-(2-methoxyethyl) (MOE); d = 2'-deoxy (DNA)

Series [1] deals with human Factor 11 mRNA. Nature of the series: Antisense inhibition of human Factor 11 in HepG2 cells, lipofectin, 75 nM (Example 1). The series is classed as cell-based. The note with it: 75 nM antisense oligonucleotide, ~24 h, relative to untreated control cells, gapmers targeted to SEQ ID NO: 1. Summed up:
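HepG2 cells transfected via lipofectin with 75 nM antisense oligonucleotide (5-10-5 MOE gapmers, 20-mers, phosphorothioate, 5-methylcytidines), treated ~24 h. Factor 11 mRNA quantified by real-time PCR, normalised to RIBOGREEN total RNA; percent inhibition versus untreated cells.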

The subject of series [2] is human Factor 11 mRNA. Kind of series: Dose-dependent antisense inhibition of human Factor 11 in HepG2 cells, lipofectin 9.375-150 nM (Example 2). Format: cell-based. Conditions: ~16 h. The procedure:
Cells were plated at a density of 10,000 cells per well and transfected using lipofectin reagent with 9.375 nM, 18.75 nM, 37.5 nM, 75 nM, and 150 nM concentrations of antisense oligonucleotide, as specified in Table 3. After a treatment period of approximately 16 hours, RNA was isolated from the cells and Factor 11 mRNA levels were measured by quantitative real-time PCR. Human Factor 11 primer probe set RTS 2966 (forward sequence: […], incorporated herein as SEQ ID NO: 3; reverse sequence: […], incorporated herein as SEQ ID NO: 4; probe sequence: TTGTCTACTGAAGCACACCCAAACAGGGAX, incorporated herein as SEQ ID NO: 5) was used to measure mRNA levels. Factor 11 mRNA levels were adjusted according to total RNA content, as measured by RIBOGREEN. Results are presented as percent inhibition of Factor 11, relative to untreated control cells.

In series [3] the test system is human Factor 11 mRNA. Nature of the series: Antisense inhibition of human Factor 11 in HepG2 cells, electroporation, 8,000 nM (Example 30). Format: cell-based. The note with it: electroporation, 8,000 nM antisense oligonucleotide. Summed up: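 HepG2 cells electroporated with 8,000 nM 5-10-5, 5-8-5 or 6-8-6 MOE gapmers (phosphorothioate, 5-methylcytidine), ~24 h. Factor 11 mRNA quantified by qRT-PCR, normalised to RIBOGREEN total RNA. Reported as percent inhibition versus untreated cells.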

On the set-up of series [4]: species or system CD1 mice. Conditions: mouse, in vivo, sc, 50 mg/kg. The procedure:
The concentration of the full-length oligonucleotide was measured. The method used is a modification of previously published methods (Leeds et al., 1996; Geary et al., 1999) which consist of a phenol-chloroform (liquid-liquid) extraction followed by a solid phase extraction. An internal standard (ISIS 355868, a 27-mer 2′-O-methoxyethyl modified phosphorothioate oligonucleotide, […], designated herein as SEQ ID NO: 270) was added prior to extraction. […] The results are presented in Table 85 expressed as μg/g liver tissue.

Details of series [5]: species or system Sprague-Dawley rats. The note with it: rat, in vivo, sc, 20 mg/kg. On the procedure: The concentration of the full-length oligonucleotide as well as the total oligonucleotide concentration (including the degraded form) was measured. The method used is a modification of previously published methods (Leeds et al., 1996; Geary et al., 1999) which consist of a phenol-chloroform (liquid-liquid) extraction followed by a solid phase extraction. An internal standard (ISIS 355868, a 27-mer 2′-O-methoxyethyl modified phosphorothioate oligonucleotide, […], designated herein as SEQ ID NO: 270) was added prior to extraction. […] The results are presented in Tables 91 and 92, expressed as μg/g liver or kidney tissue. Half-lives were then calculated using WinNonlin software ([…]).

Series [6] can be described thus: Viscosity of ISIS antisense oligonucleotides, micro-viscometer at 25 °C (Example 47). Format: physicochemical. Conditions: for Concentration: concentration of the viscosity sample, UV reading at 260 nM at 85° C.; for Viscosity: in water, micro-viscometer at 25° C., at the concentration of the same line. Summed up: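 Oligonucleotide (32-35 mg) was dissolved in 120 μL water by heating at 50° C, and viscosity was measured by micro-viscometer at 25° C. Concentration was checked by UV at 260 nm at 85° C on a dilution in water. Screening cut-off: >40 cP at 165-185 mg/mL.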

Series [7] relates to human Factor 11 mRNA. Kind of series: Antisense inhibition of human Factor 11 in HepG2 cells by microwalk gapmers, lipofectin, 75 nM (Example 3). Format: cell-based. Conditions: HepG2 cells, lipofectin, gapmers targeted to nucleobases 1275 to 1318 of SEQ ID NO: 1. Summed up: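 HepG2 cells (10,000/well) were transfected via lipofectin with 75 nM 20-mer MOE gapmers (phosphorothioate, 5-methyl-C) for about 24 h. Factor 11 mRNA was measured by qRT-PCR, normalized to RIBOGREEN total RNA, and given as percent inhibition versus untreated cells.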

In series [8] the test system is human Factor 11 mRNA. Nature of the series: Dose-dependent inhibition of human Factor 11 in HepG2 cells, electroporation 123.46-10,000 nM (Example 31). Format: cell-based. The note with it: for Percent inhibition of Factor 11 mRNA at 123.47 nM / Percent inhibition of Factor 11 mRNA at 370.37 nM / IC50: electroporation; for Percent inhibition of Factor 11 mRNA at 123.47 nM / Percent inhibition of Factor 11 mRNA at 370.37 nM / Percent inhibition of Factor 11 mRNA at 1,111.11 nM / Percent inhibition of Factor 11 mRNA at 3,333.33 nM / Percent inhibition of Factor 11 mRNA at 10,000.0 nM: approx. 16 hours, relative to untreated control cells; for Percent inhibition of Factor 11 mRNA at 1,111.11 nM: electroporation, 1,111.11 nM; for Percent inhibition of Factor 11 mRNA at 3,333.33 nM: electroporation, 3,333.33 nM; for Percent inhibition of Factor 11 mRNA at 10,000.0 nM: electroporation, 10,000.0 nM; for IC50: Factor 11 mRNA expression. On the procedure: Cells were plated at a density of 20,000 cells per well and transfected using electroporation with 123.46 nM, 370.37 nM, 1,111.11 nM, 3,333.33 nM and 10,000 nM concentrations of antisense oligonucleotide, as specified in Table 45. After a treatment period of approximately 16 hours, RNA was isolated from the cells and Factor 11 mRNA levels were measured by quantitative real-time PCR. Human Factor 11 primer probe set RTS 2966 was used to measure mRNA levels. Factor 11 mRNA levels were adjusted according to total RNA content, as measured by RIBOGREEN. Results are presented as percent inhibition of Factor 11, relative to untreated control cells.

For series [9] the following is noted: rat, in vivo, sc, 50 mg/kg.
The conditions of series [10]: rat, in vivo, sc, 50 mg/kg. The source holds these as a separate data set.
The conditions of series [11]: rat, in vivo, sc, 50 mg/kg. This is another data set of the same source.

For “413481 (antisense GGTGCACAGTTTCTGGCAGG; 5-10-5 MOE gapmer, further chemistry not given here) [compound 413481]”, in series [1], the % inhibition (commonly the share of the control response that was lost under treatment) turned out to be 86%. In addition, in [2] (9.375 nM), the “percent inhibition of Factor 11 at 9.375 nM” value is reported as 22%. Moreover, the “percent inhibition of Factor 11 at 18.75 nM” value in [2] (18.75 nM) turned out to be 38%. Besides, the “percent inhibition of Factor 11 at 37.5 nM” value in series [2] (37.5 nM) stood at 56%. In series [2] (75 nM), the “percent inhibition of Factor 11 at 75 nM” value was determined as 67%. In series [2] (150 nM), the “percent inhibition of Factor 11 at 150 nM” value is 83%. Moreover, the IC50 (usually the concentration that inhibits the measured activity by half) in series [2] came out at 32 nM. Further, in series [3], the “Percent inhibition of human Factor 11 mRNA levels” value is 82%. For the same substance, in series [4], the “Half-Life in the liver” value stood at 20.6 days. The “Half-life of ISIS oligonucleotides in the liver and kidney” value (from here on “Half-life of ISIS oligonucleotides”) in series [5] turned out to be 21 days. Also, in [6], the Concentration came out at 144 mg/mL and the Viscosity stood at 23 cP.

For “416851 (antisense GTGCACAGTTTCTGGCAGGC; 5-10-5 gapmer, further chemistry not given here) [compound 416851]”, the “% inhibition” value in [7] is given as 88%. Also, the “Percent inhibition of human Factor 11 mRNA levels” value in [3] is 89%. For the same substance, in series [8], the “Percent inhibition of Factor 11 mRNA at 123.47 nM” value (from here on “Percent inhibition … at 123.47 nM”) was 13%, the “Percent inhibition of Factor 11 mRNA at 370.37 nM” value (from here on “Percent inhibition … at 370.37 nM”) is 35%, the “Percent inhibition of Factor 11 mRNA at 1,111.11 nM” value (from here on “Percent inhibition … at 1,111.11 nM”) amounted to 36% and the “Percent inhibition of Factor 11 mRNA at 3,333.33 nM” value (“Percent inhibition … at 3,333.33 nM” below) is 64%. Besides, in series [8], the “Percent inhibition of Factor 11 mRNA at 10,000.0 nM” value (shortened to “Percent inhibition … at 10,000.0 nM”) is on record as 72% and the IC50 was found to be 1500 nM. Moreover, the “Half-Life in the liver” value in series [4] was found to be 23.8 days. Besides, in [5], the “Half-life of ISIS oligonucleotides” value is given as 24 days. For the same substance, in [6], the Concentration was found to be 187 mg/mL and the Viscosity is listed as 26 cP.

“416860 (antisense CGGACGGCATTGGTGCACAG; 5-10-5 gapmer, further chemistry not given here) [compound 416860]”: the “% inhibition” value in series [7] worked out at 88%. The “Percent inhibition of human Factor 11 mRNA levels” value in [3] was 89%. Further, in series [8], the “Percent inhibition … at 123.47 nM” value is listed as 0%, the “Percent inhibition … at 370.37 nM” value turned out to be 28%, the “Percent inhibition … at 1,111.11 nM” value is 39% and the “Percent inhibition … at 3,333.33 nM” value worked out at 41%. The “Percent inhibition … at 10,000.0 nM” value in series [8] was 40%. The “Half-Life in the liver” value in series [4] was determined as 20.6 days. In series [5], the “Half-life of ISIS oligonucleotides” value was determined as 21 days. In series [6], this substance gave a Concentration of 154 mg/mL and a Viscosity of more than 100 cP.

Regarding “416861 (antisense GCGGACGGCATTGGTGCACA; 5-10-5 gapmer, further chemistry not given here) [compound 416861]”, the “% inhibition” value in series [7] was 92%. Also, the “Percent inhibition of human Factor 11 mRNA levels” value in [3] was 90%. In [8], the “Percent inhibition … at 123.47 nM” value was found to be 0%, the “Percent inhibition … at 370.37 nM” value was 15%, the “Percent inhibition … at 1,111.11 nM” value amounted to 27% and the “Percent inhibition … at 3,333.33 nM” value came to 66%. In addition, in [8], the “Percent inhibition … at 10,000.0 nM” value is reported as 80% and 2000 nM corresponded to half-maximal inhibition (IC50). In addition, the “Half-Life in the liver” value in series [4] stood at 24.5 days. For the same substance, in series [5], the “Half-life of ISIS oligonucleotides” value stood at 25 days. In series [6], the Concentration was 110 mg/mL and the Viscosity was 14 cP.

As for “ISIS 416825: 5-10-5 MOE gapmer GCCCTTCATGTCTAGGTCCA (sugars from the 5' end e5 d10 e5, backbone and methylation of C not given here)”, in [9], the ALT is listed as 89 IU/L, the AST was found to be 17 IU/L, the Albumin is on record as 2 and the Bilirubin is listed as 4 mg/dL. Also, in series [10], the BUN is given as 7 mg/dL and the Creatinine amounted to 17 mg/dL. In series [11], the HCT is on record as 2%, the MCH worked out at 2, the MCHC is reported as 4% and the MCV is listed as 4. Also, in [11], the Platelets was 6 10^3/μL, the RBC is recorded as 2, the WBC came out at 22 nL⁻¹ and the hemoglobin came out at 2 g/dL. For the same substance, in series [11], the lymphocytes was determined as 3%, the monocytes was 15% and the neutrophils came out at 25%.

Take “ISIS 416826: 5-10-5 MOE gapmer ATGCCCTTCATGTCTAGGTC (sugars from the 5' end e5 d10 e5, backbone and methylation of C not given here)”: in series [9], the ALT came to 611 IU/L, the AST worked out at 104 IU/L, the Albumin was determined as 6 and the Bilirubin stood at 115 mg/dL. In series [10], this substance had a BUN of 25 mg/dL and a Creatinine of 6 mg/dL. In series [11], this substance registered an HCT of 7%, an MCH of 3, an MCHC of 4% and an MCV of 6. For the same substance, in series [11], the Platelets was 11 10^3/μL, the RBC was 5, the WBC stood at 7 nL⁻¹ and the hemoglobin worked out at 7 g/dL. In addition, in series [11], the lymphocytes came out at 5%, the monocytes was 7% and the neutrophils turned out to be 30%.

In series [9], “ISIS 416892: 3-14-3 MOE gapmer GCCCTTCATGTCTAGGTCCA (sugars from the 5' end e3 d14 e3, backbone and methylation of C not given here)” had an ALT of 113 IU/L, an AST of 183 IU/L, an Albumin of 8 and a Bilirubin of 1 mg/dL. For the same substance, in [10], the BUN was determined as 188 mg/dL and the Creatinine amounted to 1 mg/dL. In series [11], this substance showed an HCT of 13%, an MCH of 2, an MCHC of 0% and an MCV of 1. Besides, in series [11], the Platelets is 66 10^3/μL, the RBC is 12, the WBC turned out to be 68 nL⁻¹ and the hemoglobin is given as 14 g/dL. For the same substance, in series [11], the lymphocytes was found to be 18%, the monocytes came to 58% and the neutrophils is recorded as 92%.
